Patent US9750841B2, “Biodegradable medical adhesive and preparation method and use thereof” (INSTITUTE OF PHARMACOLOGY AND TOXICOLOGY ACADEMY OF …, priority 2011, dated 2017)

Legend:
[1] = Test of curing time of formulated adhesives on pigskin; format: physicochemical; conditions: between two pieces of pigskin, room temperature
Excerpt: Test Method: The medical adhesives of different formulations in Examples 1 and 2 were respectively dropped in a small amount on the surface of one piece of pigskin at room temperature, and the other piece of pigskin was rapidly lapped thereon; the two pieces of pigskin were respectively pulled in opposite directions, to test the adhesion between them. The duration starting from the generation of adhesion between the two pieces of pigskin to the complete cure of the liquid adhesive between the two pieces of pigskin after lapping for a certain time was designated as the curing time.

[2] = Degradation of cured adhesive in PBS buffer; format: physicochemical; conditions: 14 days, 0.1 M phosphate buffer pH 7.2-7.4, 37.5° C., average of three samples
Excerpt: After 14 days, the residual solids were weighed. The results were used to evaluate the degradation properties.

[3] = Accelerated degradation in 0.1 N NaOH solution; format: physicochemical; conditions: disappearance to the naked eye
Protocol: Further accelerated degradation test was carried out in a 0.1 N NaOH solution. The operation method was the same as that provided in this example, with the use of formulated adhesive J01 and the control as samples. The time point when the adhesive bond completely disappeared to the naked eye was regarded as the complete degradation time.

[4] = rat, in vivo
Protocol: Two groups of adult rats, each six, were taken. The abdominal cavity was opened, a section of small intestine was lifted and stretched out with a biodegradable thread, approximately 1 cm away from the body, and in an inverted “U” shape. […] After the adhesive bond was completely cured and the small intestine was adhered together (about 1 minute), the small intestine was put back into the abdominal cavity, followed by suturing. Normal healing time of biological tissue was about 7-10 days. After 2 weeks, the small intestine was stretched out again, for observing the changes of the small intestine per se and the adhesive bond.

[5] = TEM test of adhesive structure; format: physicochemical; conditions: 0.1 mg/mL dilution in water, phosphotungstic acid staining
Protocol: 20 mg of adhesive (A, n-butyl cyanoacrylate as control; B, formulated adhesive J01 (bis-α-cyanoacrylic acid PEG2000 ester:n-butyl cyanoacrylate 1:1, i.e., the formulated adhesive in Example 1) was dissolved in 1 mL of redistilled acetone, to obtain a homogeneous solution, which was diluted by 100-fold. 0.5 mL of the dilution was taken and mixed with 0.5 mL of deionized water. Acetone was distilled off, and water was supplemented till 1 mL, to obtain a 0.1 mg/mL dilution. 15 uL of the dilution was dropped on a copper web-like of electron microscopy, and settled for 15 min. Then, water was removed by adsorption with filter paper. After staining with 5 uL of phosphotungstic acid for 2 min, the samples were observed by transmission electron microscopy.

[6] = Adhesion test of skin incision injury, rats; format: in vivo; conditions: 2 cm dorsal skin incision, observed over 7 days
Protocol: (§1) Five adult rats and five guinea pigs were unhaired on the back, and subjected to abdominal anesthesia. After the back was disinfected, a longitudinal incision of about 2 cm in length was cut about 1 cm next to the dorsal line, deep to muscular layer. […] On the other side of the back, an incision of the same size was cut, and the wound was treated in the same way with the control adhesive n-butyl cyanoacrylate. Finally, the operative sites were bandaged using gauze.

[7] = Adhesion test of skin incision injury, guinea pigs; format: in vivo; conditions: 2 cm dorsal skin incision, observed over 7 days
Protocol: as §1

[8] = Adhesion test of skin incision injury of dog; format: in vivo; conditions: 4 cm skin incision, two stitches plus adhesive, after one week
Protocol: Adult test dogs (purchased from Experimental Animal Center of Academy of Military Medical Sciences) were unhaired on the neck and back, and disinfected. A longitudinal incision of about 4 cm in length was cut on the left side, deep to muscular layer. […] On the other side of the same position, an incision of the same size was cut, and also sutured in two stitches. Then, the wound was treated in the same way with n-butyl cyanoacrylate.

[9] = Intestinal skyrocketing compression test in rats; format: in vivo, SD rats; conditions: rat small intestine, 2 mm hole closed with 5 uL adhesive, tested after 3 min, seven animals per group
Protocol: Twenty SD rats (purchased from Experimental Animal Center of Academy of Military Medical Sciences) were anaesthetized by intraperitoneal injection of 45 mg/kg sodium pentobarbital, and unhaired on the abdomen. The abdominal cavity was opened, and a section of small intestine 45 mm was taken out. One end of the small intestine was ligated with a silk thread, and the other end was cut to make a small incision, which was then connected to a three-way tube in connection with a pressure gauge and a tension transducer. A syringe needle 2 mm in diameter was used to open a small hole in the small intestine. After cleaning off drainage with cotton, the small hole was rapidly closed by smearing 5 uL medical adhesive, and then test was conducted after standing for 3 min. […] The pressure value at this point was just the maximum tolerable pressure. There were seven animals per group, and the average value and variance were calculated.

With `C=C(C#N)C(=O)OCCCC` [n-butyl cyanoacrylate] the curing time [1] was 5 to 15 s, the “Residual solids % in PBS” value [2] was 95.74% and the “complete degradation time in NaOH (solids completely disappeared)” value [3] was 4 days. The “changes of the small intestine tissue” value [4] was “significantly had hyperplasia and significantly became thicker”, the “structure observed by transmission electron microscopy” value [5] was “relatively solid and dense microsphere structure” and the wound closure [6] was “well closed”. The wound closure [7] was “well closed”, the wound healing [8] was “good healing” and the maximum tolerable pressure [9] was 120.22±26.81 mmHg.
